Results taken from US12220400B2, “Amino acid compositions and methods for treating cystic fibrosis” (UNIVERSITY OF FLORIDA RESEARCH FOUNDATION, INCORPORATED, priority 2018, dated 2025).

Tested on: HBEC-F508del
Assay: Transepithelial short-circuit anion current in HBEC-F508del, Example 3
Type: cell-based, human
Description: Methods: Transepithelial short-circuit current and ^36Cl net flux (Jnet) were measured in differentiated HBEC-F508del bathed in vehicle (no AA), AA test formulation (CF5AA-3) or AA negative control (NC; CF4AA-3) in Ussing chambers. Cells were treated with C18 (VX809-analogue), VX661 or DMSO for 24 hours. After blocking ENaC with benzamil, chloride secretion was stimulated using GLPG1837 (VX770-analogue) with or without forskolin. CFTRinh-172, CaCCinh-A01 or bumetanide were added to distinguish CFTR-, TMEM16A- and NKCC1-sensitive chloride currents, respectively. Western blot was performed on HBEC-F508del membrane fractions to determine apical CFTR expression.

In the case of `CC(C)(CO)c1cc2cc(NC(=O)C3(c4ccc5c(c4)OC(F)(F)O5)CC3)c(F)cc2n1C[C@@H](O)CO` [VX661, tezacaftor], the basal anion current (corrector pretreatment 24 hours, cells bathed in vehicle (no AA)) was 1.5±0.2 μA and the “peak anion current after stimulation with forskolin and GLPG1837” value (forskolin and GLPG1837) was 7.9±0.7 μA.
